Where no end group is shown, it is not given here.

The test system of one assay is pMucin. Description: Mucin agglutination assay. The class given is biochemical, porcine. The conditions noted are these: pMucin 0.02% w/v, 405 nm, 25 °C. The method, then:
Mucin agglutination assays were performed at 25 °C on an EnVision 2105 Multimode Plate Reader (PerkinElmer) to monitor transmission at 405 nm over time. The assay was performed in a 96-well plate (Corning, polystyrene flat bottom clear) with 50 µl per well. pMucin concentration was kept consistent at 0.02% w/v and TFF concentration varied (0, 1, 2, 4, 8, 16 or 32 µM). The resulting curves were normalised to percent decrease in signal, averaged over three replicates and plotted using Prism 8 (GraphPad).

Another assay relates to the other TFF mutants. Nature of the assay: ITC of GlcNAc-α-1,4-Gal against the other TFF mutants. In kind it is binding, human. The method, then: (§1) All TFF and ligand stock solutions were prepared in the same buffer (50 mM HEPES, 50 mM NaCl, pH 7.4) and filtered (0.22 µm) just prior to titration. All control and non-binding ligand experiments were performed as 12 × 3.18 µl injections. For experiments with GlcNAc-α-1,4-Gal (Carbosynth), 25 × 1.58 µl injections were used. All runs were performed at 25 °C in a MicroCal iTC200 (Malvern).
(§2) Supplementary Figure 1: ITC controls and negative results. Top row: Ligand into buffer and
(§3) buffer into protein controls for Figure 1D. Bottom row: ITC data for TFF mutants.
(§4) (1 picture or pasted object on this page, not shown here)

The next assay has as its target all TFFs. Nature of the assay: Dissociation constant of TFF-disaccharide complexes, summary of orthogonal techniques. The class given is binding, human. The following applies: physiological pH, approximate. How it is done:
as §1
(§5) Tryptophan fluorescence quenching assays were performed at 25 °C on an EnVision 2105 Multimode Plate Reader (PerkinElmer) with excitation at 280 nm and emission measured at 340 nm. The assay was performed in a 384-well plate (Corning, low volume black round bottom polystyrene non-binding surface) using 15 µl per well. Each sample contained mTFF1 or mTFF3 (5 µM) and GlcNAc-α-1,4-Gal (1 µM–4.1 mM) in 50 mM BTP/citric acid, 25 mM NaCl, at either pH 2.6, 5.0, or 7.4. For each ligand dilution series, Kd was calculated by fitting the data to a one-site binding curve using Prism 8 (GraphPad) and the mean calculated from three independent experiments.

Assay [1] concerns the target T1, mTFF3 (human TFF3, monomeric) (Homo sapiens, UniProt Q07654, C78S).
T1 construct: with an N-terminal PelB signal peptide, no interchain Cys, and a C-terminal His6-tag; PelB signal peptide (N, cleaved yes); His6 (C, cleaved yes); made in house; host or cells: E. coli T7 Express, periplasmic extraction
T1 sequence (Q07654 22-80 C78S): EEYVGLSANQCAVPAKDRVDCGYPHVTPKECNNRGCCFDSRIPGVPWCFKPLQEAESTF
Nature of the assay: Isothermal titration calorimetry of glycans against mTFF3. The class given is binding. How it is done:
as §1
(§6) Supplementary Table 2: Parameters used for ITC and thermodynamic terms determined for
(§7) GlcNAc-α-1,4-Gal binding to the TFFs. Data are presented as mean values ±SD for three
(§8) Protein GlcNAc-α- T n Kd ΔH ΔS -TΔS ΔG
(§9) (30 µM) 1,4-Gal (µM) (℃) (µM) (kcal · mol-1) (cal · mol-1 · K-1) (kcal · mol-1) (kcal · mol-1)
On the technique in general: Isothermal titration calorimetry measures the heat released or taken up as one component is titrated into another.

Assay [2] deals with bacterial carbohydrate-binding module family 32 protein (CBM32). The conditions noted are these: CBM32 binding GlcNAc-α-1,4-Gal; cited from earlier work.
The next assay addresses T2, TFF2 (human TFF2) (Homo sapiens, UniProt Q03403, N38Q).
T2 construct: with an N-terminal gp67 signal peptide and a C-terminal His10-tag; gp67 signal peptide (N, cleaved yes); made in house; host or cells: Sf21 insect cells (baculovirus), secreted
T2 sequence (Q03403 24-129 N38Q): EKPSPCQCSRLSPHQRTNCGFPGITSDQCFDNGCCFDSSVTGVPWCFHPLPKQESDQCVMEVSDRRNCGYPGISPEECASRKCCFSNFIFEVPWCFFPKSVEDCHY
Description: Isothermal titration calorimetry of glycans against TFF2. The class given is binding. How it is done:
as §1, §6, §7, §8, §9

The target of a further assay is T3, mTFF1 (Homo sapiens, UniProt P04155).
T3 construct: PelB signal peptide (N, cleaved yes); His6 (C, cleaved yes); made in house; host or cells: E. coli T7 Express, periplasmic extraction
T3 sequence (P04155 29-72 limits assumed): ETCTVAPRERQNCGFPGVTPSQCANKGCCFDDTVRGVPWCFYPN
Description: Tryptophan fluorescence quenching assay, mTFF1. The class given is binding. The method, then: as §5

For the next assay, the target named is T4, mTFF3 (Homo sapiens, UniProt Q07654, C78S).
T4 construct: with an N-terminal PelB signal peptide, no interchain Cys, and a C-terminal His6-tag; PelB signal peptide (N, cleaved yes); His6 (C, cleaved yes); made in house; host or cells: E. coli T7 Express, periplasmic extraction
T4 sequence (Q07654 22-80 C78S): T1 sequence (Q07654 22-80 C78S)
Nature of the assay: Tryptophan fluorescence quenching assay, mTFF3. The class given is binding. The method, then:
as §5

Another assay deals with T5, dTFF1bio-N14A (Homo sapiens, UniProt P04155, N40A).
T5 construct: […]; made in house; host or cells: E. coli SHuffle T7; dimerised with K3Fe(CN)6
T5 sequence (P04155 25-84 N40A): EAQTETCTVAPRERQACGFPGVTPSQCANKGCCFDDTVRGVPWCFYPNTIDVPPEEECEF
Nature of the assay: ITC of GlcNAc-α-1,4-Gal against dTFF1bio-N14A. The class given is binding. The following applies: mutant dTFF1bio-N14A. The method, then: as §1, §2, §3, §4

Assay [3] deals with T6, mTFF1 (human TFF1, monomeric) (Homo sapiens, UniProt P04155).
T6 construct: PelB signal peptide (N, cleaved yes); His6 (C, cleaved yes); made in house; host or cells: E. coli T7 Express, periplasmic extraction
T6 sequence (P04155 with tags, fused parts or gaps): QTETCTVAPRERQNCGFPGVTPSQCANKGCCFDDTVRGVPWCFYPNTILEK
Nature of the assay: Isothermal titration calorimetry of glycans against mTFF1. In kind it is binding. The conditions noted are these: 25 °C. The method, then:
as §1, §6, §7, §8, §9

Take “Dimeric TFF1: dimeric wild-type TFF1 construct used in the pMucin agglutination assay ({Avi‑tag(biotin)}-EAQTETCTVAPRERQNCGFPGVTPSQCANKGCCFDDTVRGVPWCFYPNTIDVPPEEECEF; also: homodimer via interchain disulfide, Cys not given here)”: the “lowest concentration inducing dose-dependent increase in light scattering over time” value with pMucin was 4 µM.
For “Dimeric TFF3: dimeric wild-type TFF3 construct used in the pMucin agglutination assay ({Avi‑tag(biotin)}-EEYVGLSANQCAVPAKDRVDCGYPHVTPKECNNRGCCFDSRIPGVPWCFKPLQEAECTF; also: homodimer via interchain disulfide, Cys not given here)”, the “lowest concentration inducing dose-dependent increase in light scattering over time” value in the assay on pMucin was found to be 4 µM.
For `CC(=O)N[C@H]1[C@@H](O[C@@H]2[C@H](O)[C@@H](O)C(O)O[C@@H]2CO)O[C@H](CO)[C@@H](O)[C@@H]1O` (stereo partly drawn) [GlcNAc-α-1,4-Gal], the “binding by ITC” value was “unable to detect any binding” in the assay on the other TFF mutants, “unable to detect any binding” on dTFF1bio-N14A and “could not detect any residual binding” on dTFF1bio-N14A (listed as GlcNAc-a-1,4-Gal). Also, the Kd was around 50 µM on all TFFs; 65 ± 5 µM in assay [1]; 72 µM in [2]; 44 ± 8 µM at TFF2 (human TFF2); 67 ± 1 µM at mTFF1 (pH 2.6, 25 °C); 37 ± 2 µM on mTFF1 (pH 7.4, 25 °C). Besides, the Kd at mTFF3 (pH 2.6, 25 °C) was 350 ± 60 µM; at mTFF3 (pH 7.4, 25 °C), 58 ± 1 µM; in assay [3] (ITC, 50 mM HEPES, 50 mM NaCl, pH 7.4, protein 30 µM) it was 49 ± 4 µM. In addition, the n in assay [1] (ITC stoichiometry, 25 °C) came to 1.0 ± 0.1; at TFF2 (human TFF2) (ITC stoichiometry, 25 °C), 0.7 ± 0.3; in [3] (ITC stoichiometry) it was 1.0 ± 0.2. For the same compound, the “-TΔS” value in assay [1] (ITC, 25 °C) was 5.0 ± 0.5 kcal/mol; at TFF2 (human TFF2) (ITC, 25 °C), 20 ± 10 kcal/mol; in [3] (ITC), 4 ± 2 kcal/mol. The ΔG in assay [1] (ITC, 25 °C) is -5.83 ± 0.05 kcal/mol; on TFF2 (human TFF2) (ITC, 25 °C) it was -6.2 ± 0.2 kcal/mol; in assay [3] (ITC) it was -5.97 ± 0.03 kcal/mol. The ΔH in assay [1] (ITC, 25 °C) is -10.8 ± 0.5 kcal/mol; on TFF2 (human TFF2) (ITC, 25 °C) it was -20 ± 10 kcal/mol; in assay [3] (ITC) it was -10 ± 2 kcal/mol. The ΔS was -17 ± 2 cal · mol-1 · K-1 in assay [1] (ITC, 25 °C); -60 ± 40 cal · mol-1 · K-1 on TFF2 (human TFF2) (ITC, 25 °C); -14 ± 5 cal · mol-1 · K-1 in assay [3] (ITC). Also, the “Kd at pH 2.6 relative to pH 7.4” value on mTFF3 (mTFF3) was “six-fold higher”.

For orientation: Kd means a measure of binding affinity in units of concentration.

The record behind these values is paper PMC7221086, “Trefoil factors share a lectin activity that defines their role in mucus” (Nature Communications, 2020).
